In ChEMBL document CHEMBL3880420, “1,5-Diaryl-2-alkylpyrrole-3-Substituted Nitro Esters, Selective COX-2 Inhibitors and Nitric Oxide Donors” (2013) one finds T1/2, inhibition and Activity data, which are given here for 54 compounds.

Usually inhibition stands for the drop in the measured response relative to a control, in per cent.

For assay [1], the system named is Liver. As to the kind of experiment: Induction of nitric oxide release in rat liver assessed as time require for amount of nitrite release by test compound equal to half its maximum release at 1 mM by amperometric method. The assay is classed as functional.
The target in assay [2] is T1, Prostaglandin G/H synthase 1 (Mus musculus) (UniProt P22437).
T1 sequence (whole entry): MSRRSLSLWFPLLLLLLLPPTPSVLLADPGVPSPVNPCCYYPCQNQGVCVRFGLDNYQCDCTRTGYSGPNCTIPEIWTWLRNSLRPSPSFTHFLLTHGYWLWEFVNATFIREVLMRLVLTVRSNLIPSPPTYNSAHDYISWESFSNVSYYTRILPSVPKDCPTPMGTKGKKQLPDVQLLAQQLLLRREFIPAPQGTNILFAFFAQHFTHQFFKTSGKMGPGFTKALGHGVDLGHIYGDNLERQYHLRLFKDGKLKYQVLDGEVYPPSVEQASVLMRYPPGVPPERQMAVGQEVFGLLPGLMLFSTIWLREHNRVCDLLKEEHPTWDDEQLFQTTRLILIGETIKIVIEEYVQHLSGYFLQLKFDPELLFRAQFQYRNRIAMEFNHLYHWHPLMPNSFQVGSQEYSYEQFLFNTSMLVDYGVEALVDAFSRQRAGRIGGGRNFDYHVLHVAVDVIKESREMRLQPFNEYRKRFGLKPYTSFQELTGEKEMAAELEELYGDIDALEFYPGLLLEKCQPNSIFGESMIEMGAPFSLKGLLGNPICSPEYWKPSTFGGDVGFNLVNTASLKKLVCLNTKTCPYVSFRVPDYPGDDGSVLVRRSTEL
Put plainly: Inhibition of COX1 in mouse J774 cells using arachidonic acid as substrate assessed as decrease in PGE2 production at 10 uM preincubated for 15 mins followed by substrate addition measured after 30 mins by radioimmunoassay relative to control. The assay is classed as cell-based.

Assay [3] is described as follows: Vasorelaxing effect in Wistar rat thoracic aorta ring assessed as reduction of KCl-induced contractile tone at 10 uM in presence of guanylate cyclase inhibitor ODQ1. The assay is classed as functional.
Assay [4] relates to Liver. As to the kind of experiment: Induction of nitric oxide release in rat liver assessed as increase in nitrite levels at 1 mM by amperometric method. The assay is classed as functional, tissue-based. The following applies: TDE = time-dependent effect.

Structures are written as SMILES. Calls of active or inactive are those of the source. No cut-off for these calls is given here. Where only a bound is given, the exact number is not on record here.

On to `O=C(NCCO[N+](=O)[O-])c1cccnc1`, for which the T1/2 in the assay on Liver [1] was 0.463 h.

Take `Cc1c(CCOCCCO[N+](=O)[O-])cc(-c2ccc(S(C)(=O)=O)cc2)n1-c1ccccc1`: the inhibition in assay [2] is below 20%.

In the case of `Cc1c(CCOCCO[N+](=O)[O-])cc(-c2ccc(S(C)(=O)=O)cc2)n1-c1cccc(F)c1`, in the assay with Liver [1], the T1/2 was 1.01 h. For the same compound, in assay [2], the inhibition is below 20%.

Consider `Cc1c(CC(=O)NCCCO)cc(-c2ccc(S(C)(=O)=O)cc2)n1-c1ccc(F)cc1`, for which the inhibition in assay [2] was below 20%.

Regarding `Cc1c(CC(=O)NC(CCO[N+](=O)[O-])C(=O)O)cc(-c2ccc(S(C)(=O)=O)cc2)n1-c1ccc(F)cc1` (racemic), the inhibition in assay [2] was below 20%.

Regarding `CSc1ccc(-n2c(-c3ccc(S(C)(=O)=O)cc3)cc(CC(=O)OCCCO[N+](=O)[O-])c2C)cc1`, in assay [2], the inhibition was below 20%.

For `COc1ccc(-n2c(-c3ccc(S(C)(=O)=O)cc3)cc(CC(=O)OCCCCO[N+](=O)[O-])c2C)cc1`, in assay [2], the inhibition is below 20%.

Consider `Cc1c(CC(=O)OCCO[N+](=O)[O-])cc(-c2ccc(S(C)(=O)=O)cc2)n1-c1cccc(F)c1`, for which the inhibition in assay [2] is below 20%.

Regarding `COc1ccc(-n2c(-c3ccc(S(C)(=O)=O)cc3)cc(CC(=O)OCCCO)c2C)cc1`, in assay [2], the inhibition is below 20%.

Take `Cc1c(CC(=O)OCCCCO)cc(-c2ccc(S(C)(=O)=O)cc2)n1-c1cccc(F)c1`: in assay [2], the inhibition was below 20%.

Take `CSc1ccc(-n2c(-c3ccc(S(C)(=O)=O)cc3)cc(CC(=O)OCCO)c2C)cc1`: the inhibition in assay [2] was below 20%.

With `Cc1c(CC(=O)OCCCO)cc(-c2ccc(S(C)(=O)=O)cc2)n1-c1cccc(F)c1`, the inhibition in assay [2] was below 20%.

`Cc1c(CC(=O)OCCCO[N+](=O)[O-])cc(-c2ccc(S(C)(=O)=O)cc2)n1-c1cccc(F)c1`: in assay [2], the inhibition is below 20%.

On to `Cc1c(CCOCCO)cc(-c2ccc(S(C)(=O)=O)cc2)n1-c1ccccc1`, for which, in assay [2], the inhibition was below 20%.

As to `Cc1c(CC(=O)N[C@@H](CO)C(=O)O)cc(-c2ccc(S(C)(=O)=O)cc2)n1-c1cccc(F)c1`, the inhibition in assay [2] is below 20%.

Turning to `Cc1c(CCOCCO)cc(-c2ccc(S(C)(=O)=O)cc2)n1-c1ccc(F)c(F)c1`, in assay [2], the inhibition is below 20%.

Consider `COc1ccc(-n2c(-c3ccc(S(C)(=O)=O)cc3)cc(CC(=O)OCCCO[N+](=O)[O-])c2C)cc1`, for which the inhibition in assay [2] was below 20%.

As to `Cc1c(CC(=O)NCCO)cc(-c2ccc(S(C)(=O)=O)cc2)n1-c1ccc(F)cc1`, the inhibition in assay [2] was below 20%.

Regarding `Cc1c(CC(=O)OCCCCO[N+](=O)[O-])cc(-c2ccc(S(C)(=O)=O)cc2)n1-c1cccc(F)c1`, the inhibition in assay [2] is below 20%.

Take `Cc1c(CC(=O)OCCO)cc(-c2ccc(S(C)(=O)=O)cc2)n1-c1cccc(F)c1`: in assay [2], the inhibition is below 20%.

As to `Cc1c(CC(=O)N[C@@H](CO)C(=O)O)cc(-c2ccc(S(C)(=O)=O)cc2)n1-c1ccc(F)cc1`, the inhibition in assay [2] is below 20%.

Regarding `Cc1c(CCOCCCO[N+](=O)[O-])cc(-c2ccc(S(C)(=O)=O)cc2)n1-c1ccc(F)cc1`, the inhibition in assay [2] was below 20%.

Take `Cc1c(CC(=O)N[C@@H](CO[N+](=O)[O-])C(=O)O)cc(-c2ccc(S(C)(=O)=O)cc2)n1-c1ccc(F)cc1`: in assay [2], the inhibition is below 20%.

As for `Cc1c(CCOCCO)cc(-c2ccc(S(C)(=O)=O)cc2)n1-c1ccc(F)cc1`, in assay [2], the inhibition is below 20%.

Regarding `Cc1c(CC(=O)NCCO)cc(-c2ccc(S(C)(=O)=O)cc2)n1-c1cccc(F)c1`, the inhibition in assay [2] was below 20%.

Consider `Cc1c(C(N)C(=O)OCCCO[N+](=O)[O-])cc(-c2ccc(S(C)(=O)=O)cc2)n1-c1ccc(F)cc1` (racemic), for which the result in assay [3] was Active. For the same compound, the inhibition in assay [2] was below 20%.

As to `COc1ccc(-n2c(-c3ccc(S(C)(=O)=O)cc3)cc(CC(=O)OCCO)c2C)cc1`, the inhibition in assay [2] was below 20%.

As to `Cc1c(CCOCCCO[N+](=O)[O-])cc(-c2ccc(S(C)(=O)=O)cc2)n1-c1cccc(F)c1`, the T1/2 with Liver [1] is 1.41 h. In addition, the Activity entry in the assay on Liver [4] is “Tde”. In assay [2], the inhibition is below 20%.

Take `CSc1ccc(-n2c(-c3ccc(S(C)(=O)=O)cc3)cc(CC(=O)OCCCCO)c2C)cc1`: the inhibition in assay [2] was below 20%.

In the case of `CSc1ccc(-n2c(-c3ccc(S(C)(=O)=O)cc3)cc(CC(=O)OCCCO)c2C)cc1`, the inhibition in assay [2] is below 20%.

As to `Cc1c(CC(=O)OCCO)cc(-c2ccc(S(C)(=O)=O)cc2)n1-c1ccccc1`, the inhibition in assay [2] was below 20%.

In the case of `Cc1c(CCOCCCO)cc(-c2ccc(S(C)(=O)=O)cc2)n1-c1ccc(F)cc1`, the inhibition in assay [2] is below 20%.

For `Cc1c(CCOCCO[N+](=O)[O-])cc(-c2ccc(S(C)(=O)=O)cc2)n1-c1ccc(F)c(F)c1`, in the assay on Liver [1], the T1/2 came to 1.14 h. The inhibition in assay [2] was below 20%.

With `Cc1c(CC(=O)OCCO[N+](=O)[O-])cc(-c2ccc(S(C)(=O)=O)cc2)n1-c1ccc(F)cc1`, in the assay with Liver [1], the T1/2 worked out at 1.15 h. Further, the inhibition in assay [2] was below 20%.

Regarding `Cc1c(CC(=O)OCCO)cc(-c2ccc(S(C)(=O)=O)cc2)n1-c1ccc(F)cc1`, in assay [2], the inhibition is below 20%.

In the case of `Cc1c(C(N)C(=O)OCCO[N+](=O)[O-])cc(-c2ccc(S(C)(=O)=O)cc2)n1-c1ccc(F)cc1` (racemic), in assay [2], the inhibition was below 20%.

Regarding `Cc1c(CCOCCO)cc(-c2ccc(S(C)(=O)=O)cc2)n1-c1cccc(F)c1`, in assay [2], the inhibition is below 20%.

In the case of `Cc1c(CCOCCO[N+](=O)[O-])cc(-c2ccc(S(C)(=O)=O)cc2)n1-c1ccccc1`, in assay [2], the inhibition is below 20%.

Turning to `Cc1c(C(N)C(=O)OCCCCO[N+](=O)[O-])cc(-c2ccc(S(C)(=O)=O)cc2)n1-c1ccc(F)cc1` (racemic), in assay [3], the outcome was Active. Besides, the inhibition in assay [2] was below 20%.

For `Cc1c(CCOCCCO)cc(-c2ccc(S(C)(=O)=O)cc2)n1-c1cccc(F)c1`, the inhibition in assay [2] is below 20%.

For `Cc1c(CC(=O)NCCCO)cc(-c2ccc(S(C)(=O)=O)cc2)n1-c1cccc(F)c1`, the inhibition in assay [2] was below 20%.

`COc1ccc(-n2c(-c3ccc(S(C)(=O)=O)cc3)cc(CC(=O)OCCO[N+](=O)[O-])c2C)cc1`: the inhibition in assay [2] is below 20%.

With `Cc1c(CC(=O)NCCO[N+](=O)[O-])cc(-c2ccc(S(C)(=O)=O)cc2)n1-c1ccc(F)cc1`, in assay [2], the inhibition is below 20%.

`Cc1c(CC(=O)OCCCCO[N+](=O)[O-])cc(-c2ccc(S(C)(=O)=O)cc2)n1-c1ccc(F)cc1`: the inhibition in assay [2] is below 20%.

For `Cc1c(CC(=O)OCCO[N+](=O)[O-])cc(-c2ccc(S(C)(=O)=O)cc2)n1-c1ccccc1`, the inhibition in assay [2] is below 20%.

Regarding `Cc1c(CC(=O)OCC(CO[N+](=O)[O-])O[N+](=O)[O-])cc(-c2ccc(S(C)(=O)=O)cc2)n1-c1ccccc1` (racemic), the inhibition in assay [2] is below 20%.

Regarding `Cc1c(CCOCCO[N+](=O)[O-])cc(-c2ccc(S(C)(=O)=O)cc2)n1-c1ccc(F)cc1`, the T1/2 in the assay on Liver [1] is 0.713 h. Besides, in assay [2], the inhibition is below 20%.

With `Cc1c(CC(=O)NC(CCO)C(=O)O)cc(-c2ccc(S(C)(=O)=O)cc2)n1-c1ccc(F)cc1` (racemic), the inhibition in assay [2] was below 20%.

Consider `CSc1ccc(-n2c(-c3ccc(S(C)(=O)=O)cc3)cc(CC(=O)OCCO[N+](=O)[O-])c2C)cc1`, for which, in assay [2], the inhibition is below 20%.

In the case of `CSc1ccc(-n2c(-c3ccc(S(C)(=O)=O)cc3)cc(CC(=O)OCCCCO[N+](=O)[O-])c2C)cc1`, the outcome in assay [3] was Active. Also, the inhibition in assay [2] was below 20%.

With `Cc1c(CC(=O)NC(CCO[N+](=O)[O-])C(=O)O)cc(-c2ccc(S(C)(=O)=O)cc2)n1-c1cccc(F)c1` (racemic), the inhibition in assay [2] was below 20%.

`COc1ccc2cc([C@H](C)C(=O)OCCCCO[N+](=O)[O-])ccc2c1`: the Activity result with Liver [4] is “Tde”.

For `COc1ccc(-n2c(-c3ccc(S(C)(=O)=O)cc3)cc(CC(=O)OCCCCO)c2C)cc1`, the inhibition in assay [2] is below 20%.

For `Cc1c(CC(=O)N[C@@H](CO[N+](=O)[O-])C(=O)O)cc(-c2ccc(S(C)(=O)=O)cc2)n1-c1cccc(F)c1`, in assay [2], the inhibition was below 20%.
